Results taken from patent US9446087B2, “Anti-resorptive and bone building dietary supplements and methods of use” (priority 2006, dated 2016).
Marks after values point to notes of the source that are not given here.

Assays:
[1] = test system: ovariectomized (OVX) rat model; experiment: In vivo ovariectomized (OVX) rat study - micro-CT measurement; conditions: OVX rats, 35 days, positive control 0.5 mg/day; vs placebo group
Procedure: Two different formulas were tested in an in vivo study involving female, intact rats, aged approximately 12-14 weeks, with approximate body weights between 200-250 grams. Formula 2 included varying dosages of pomegranate extract and grape seed extract and a fixed dosage of ipriflavone as reported in Table 18. Three dosages were tested for each formula. The study utilized 8 groups of rats, with 15 rats in each group and lasted approximately 35 days.
To introduce rapid bone resorption caused by estrogen withdrawal, the ovariectomized (OVX) rat model was used in this study. […] It was important to evaluate the effect of bone resorption caused by the ovariectomy procedure so a Sham control (n=6), a group of female rats without undergoing the ovariectomy procedure, was also included in the study.
This study employed a randomized placebo controlled dose response design. A total of 120 ovariectomized rats (n=15 per group) aged ˜12-14 weeks, with body weights of approximately 200-250 grams were randomly assigned to groups for 35 days. Animals were fed at 15 grams/day, which included either a placebo diet or one of the formulas listed above, for a period of 35 days from the beginning of the experiment. […]

[2] = test system: ovariectomized (OVX) rat model; experiment: In vivo ovariectomized (OVX) rat study - histomorphology measurement; conditions: OVX rats, 35 days, positive control 0.5 mg/day; vs placebo group
Procedure: (§1) Two different formulas were tested in an in vivo study involving female, […] rats, aged approximately 12-14 weeks, with approximate body weights between 200-250 grams. Formula 2 included varying dosages of pomegranate extract and grape seed extract and a fixed dosage of ipriflavone as reported in Table 18. Three dosages were tested for each formula. The study utilized 8 groups of rats, with 15 rats in each group and lasted approximately 35 days.
Table 18 below indicates the formula given to each of the 8 test groups. […]
The effectiveness of the formulas on antiresorption was assessed by outcome measurements that included DEXA scan (to determine bone mineral density), biomechanical measurement (to gather bone strength and functional information), micro-CT measurement (to assess virtual bone quality and functional information), and histomorphology measurement (to assess bone quality and functional information). […] These measurements were determined after 35 days of treatment.
Histomorphology measurement was also used as a tool to determine the efficacy of formulas 1 and 2 where trabecular bone volume from each group was quantified. […]

[3] = test system: calvaria (skull bones) from 4 day old pups; experiment: Calvarial Assay to Measure Inhibition of Bone Resorption (45Ca release); type: cell-based, CD-1 mice; conditions: positive control
Procedure: In order to label cells of newborn mice in utero, pregnant CD-1 female mice (at timed day 15) were injected with ^45Ca (25 uCi/mouse). […] The bones were incubated at 37° C. in a 5% CO2 humidified incubator for a period of 24 hours following which they were transferred to wells containing 1 ml media with factors added (IL-1, PTH and or compounds.) The treated bones were incubated under the above conditions for a further 72 hours. […] The results were expressed as % ^45Ca release and can be further reported as T/C ratios. For some factors and compounds, modification of this procedure can be used. As most of the osteoclasts are formed in the calvaria following the preincubation period, the factors that affect osteoclast formation may have a greater effect during the preincubation period. Thus, for a number of the compounds, they were included in the preincubation media.

[4] = test system: ovariectomized (OVX) rat model; experiment: In vivo ovariectomized (OVX) rat study - biomechanical measurements; conditions: OVX rats, 35 days, positive control 0.5 mg/day; vs placebo group
Procedure: as §1
Table 18 below indicates the formula given to each of the 8 test groups. The dosages in Table 18 are based on the recommended human dosages and were converted to the appropriate corresponding rat dose using the FDA conversion formula: Human equivalent dose (HED, mg/kg)=rat dose in mg/kg×(rat weight in kg/human weight in kg)^0.33 HED=rat NOAEL×(W-rat/W-human)^(1-b), b=0.67. […]
The effectiveness of the formulas on antiresorption was assessed by outcome measurements that included DEXA scan (to determine bone mineral density), biomechanical measurement (to gather bone strength and functional information), micro-CT measurement (to assess virtual bone quality and functional information), and histomorphology measurement (to assess bone quality and functional information). […] These measurements were determined after 35 days of treatment. […]

## NCCCC(O)(P(=O)(O)O)P(=O)(O)O [Alendronate]
[1]
  % Bone Volume/ Total Volume: 632%^a
  Trabecular Number (N/6 mm^3): 313%^a
  Trabecular Separation: −88%^a
[2]
  % Bone Volume: 214.1%^a
[3]; IL-1 + 0.1 μM
  Inhibition of Bone Resorption/Release of Calcium By Combinations of Extracts, % Release: 28.50 ± 1.19 % Release
[3]; IL-1 + 1 μM
  Inhibition of Bone Resorption/Release of Calcium By Combinations of Extracts, % Release: 17.00 ± 1.15^a % Release
[3]; IL-1 + 10 μM
  Inhibition of Bone Resorption/Release of Calcium By Combinations of Extracts, % Release: 14.07 ± 1.05^a % Release
[3]; IL-1 + 100 μM
  Inhibition of Bone Resorption/Release of Calcium By Combinations of Extracts, % Release: 12.00 ± 0.17^a % Release
[4]
  Bone Stiffness: 0.2%
  Maximum Force Required to Fracture Bones: −0.4%
